Laboratory results as given in ChEMBL document CHEMBL4814071, “Synthesis and antibacterial study of cell-penetrating peptide conjugated trifluoroacetyl and thioacetyl lysine modified peptides” (Eur J Med Chem, 2021).
Counter-ions that a name gives are not always drawn. Active and inactive are the calls of the source. The rule behind the calls is not given here. Where a SMILES comes first, the peptide text is derived from it. The star is where a group is joined. Tfa = O=C(C(F)(F)F)*

Legend:
Staphylococcus aureus [1] = assay: Potentiation of streptomycin-induced antibacterial activity against Staphylococcus aureus assessed as streptomycin MIC incubated for 24 hrs by microplate reader method; assay type: functional
Lipid bilayer [2] = assay: Binding affinity to bacterial inner membrane mimic POPE/POPG (3:1) LUVs assessed as increase in intensity by one-dimensional 19F NMR based analysis
Pseudomonas aeruginosa [3] = assay: Antibacterial activity against Pseudomonas aeruginosa assessed as reduction in microbial growth after 24 hrs in presence of polymyxin B by microplate reader method; assay type: functional
Escherichia coli [4] = assay: Antibiofilm activity against Escherichia coli assessed as biofilm eradication incubated for 24 hrs by crystal violet staining assay; assay type: functional
Pseudomonas aeruginosa [5] = assay: Antibacterial activity against Pseudomonas aeruginosa assessed as reduction in microbial growth after 24 hrs by microplate reader method; assay type: functional
Staphylococcus aureus [6] = assay: Antibiofilm activity against Staphylococcus aureus assessed as biofilm eradication at 2XMBEC incubated for 12 hrs by SYTO9/PI staining based microscopic analysis; assay type: functional, organism-based
Pseudomonas aeruginosa [7] = assay: Synergistic antibacterial activity against Pseudomonas aeruginosa assessed as fractional inhibitory concentration index incubated for 24 hrs in presence of Polymyxin B; assay type: functional
HeLa = assay: Cytotoxicity against human HeLa cells assessed as reduction in cell viability incubated for 48 hrs by MTT assay; assay type: cell-based
Escherichia coli [8] = assay: Antibacterial activity against Escherichia coli assessed as reduction in microbial growth after 24 hrs in presence of polymyxin B by microplate reader method; assay type: functional
Staphylococcus aureus [9] = assay: Antibiofilm activity against Staphylococcus aureus assessed as inhibition of biofilm formation incubated for 48 hrs by crystal violet staining assay; assay type: functional
Lipid bilayer [10] = assay: Binding affinity to bacterial inner membrane mimic DOPE/DOPG (3:1) large unilamellar vesicles assessed as calcein leakage at 20 uM by fluorescence based assay
Cell membrane [11] = assay: Disruption of membrane integrity in Staphylococcus aureus at 2 times MIC measured after 20 mins by SEM analysis
Escherichia coli [12] = assay: Synergistic antibacterial activity against Escherichia coli assessed as fractional inhibitory concentration index incubated for 24 hrs in presence of Polymyxin B; assay type: functional
Pseudomonas aeruginosa [13] = assay: Potentiation of polymyxin B-induced antibacterial activity against Pseudomonas aeruginosa assessed as polymyxin B MIC incubated for 24 hrs by microplate reader method; assay type: functional
Escherichia coli [14] = assay: Antibiofilm activity against Escherichia coli assessed as as inhibition of biofilm formation incubated for 48 hrs by crystal violet staining assay; assay type: functional
Escherichia coli [15] = assay: Antibiofilm activity against Escherichia coli assessed as biofilm eradication at 2XMBEC incubated for 12 hrs by SYTO9/PI staining based microscopic analysis; assay type: functional, organism-based
Staphylococcus aureus [16] = assay: Antibacterial activity against Staphylococcus aureus assessed as reduction in microbial growth after 24 hrs by microplate reader method; assay type: functional
Staphylococcus aureus [17] = assay: Antibiofilm activity against Staphylococcus aureus assessed as biofilm eradication incubated for 24 hrs by crystal violet staining assay; assay type: functional
Staphylococcus aureus [18] = assay: Potentiation of streptomycin-induced antibacterial activity against Staphylococcus aureus assessed as fold change in streptomycin MIC incubated for 24 hrs by microplate reader method; assay type: functional
BE(2)-C = assay: Cytotoxicity against human BE(2)-C cells assessed as reduction in cell viability incubated for 48 hrs by MTT assay; assay type: cell-based
Escherichia coli [19] = assay: Antibacterial activity against Escherichia coli assessed as reduction in microbial growth after 24 hrs by microplate reader method; assay type: functional
Escherichia coli [20] = assay: Potentiation of polymyxin B-induced antibacterial activity against Escherichia coli assessed as polymyxin B MIC incubated for 24 hrs by microplate reader method; assay type: functional
[21] = Inhibition of transcriptional machinery using Puc19-lacCONS plasmid DNA and Escherichia coli RNA polymerase-sigma70 holoenzyme at 40 uM incubated for 35 mins followed by NTP addition for 30 mins by spectrofluorometer analysis; assay type: functional; conditions: time 65.0 min
[22] = Induction of yeast killing at 50 uM incubated for 72 hrs in presence of Ura3 and absence of FOA by absorbance based analysis; conditions: saccharomyces cerevisiae
[23] = molecular target: NAD-dependent histone deacetylase SIR2 (Saccharomyces cerevisiae S288c) (UniProt P06700); assay: Inhibition of yeast sirtuin2-mediated Ura3 transcriptional silencing at telomeric locus assessed as yeast killing at 50 uM incubated for 72 hrs in presence of FOA by absorbance based analysis
Cell membrane [24] = assay: Disruption of membrane integrity in Escherichia coli at 2 times MIC measured after 20 mins by SEM analysis
Staphylococcus aureus [25] = assay: Synergistic antibacterial activity against Staphylococcus aureus assessed as fractional inhibitory concentration index incubated for 24 hrs in presence of streptomycin; assay type: functional
[26] = Hemolytic activity against mouse RBC at 1000 uM measured after 1 hr by microplate reader analysis; assay type: cell-based, Erythrocyte; conditions: mouse red blood cells (erythrocytes), read-out: Activity
Staphylococcus aureus [27] = assay: Antibacterial activity against Staphylococcus aureus assessed as reduction in microbial growth after 24 hrs in presence of streptomycin by microplate reader method; assay type: functional
Lipid bilayer [28] = assay: Binding affinity to mammalian membrane mimic DOPC/40% cholesterol assessed as calcein leakage at 20 uM by fluorescence based assay; assay type: ADME

NAD-dependent histone deacetylase SIR2 (Saccharomyces cerevisiae S288c), sequence (P06700 whole entry): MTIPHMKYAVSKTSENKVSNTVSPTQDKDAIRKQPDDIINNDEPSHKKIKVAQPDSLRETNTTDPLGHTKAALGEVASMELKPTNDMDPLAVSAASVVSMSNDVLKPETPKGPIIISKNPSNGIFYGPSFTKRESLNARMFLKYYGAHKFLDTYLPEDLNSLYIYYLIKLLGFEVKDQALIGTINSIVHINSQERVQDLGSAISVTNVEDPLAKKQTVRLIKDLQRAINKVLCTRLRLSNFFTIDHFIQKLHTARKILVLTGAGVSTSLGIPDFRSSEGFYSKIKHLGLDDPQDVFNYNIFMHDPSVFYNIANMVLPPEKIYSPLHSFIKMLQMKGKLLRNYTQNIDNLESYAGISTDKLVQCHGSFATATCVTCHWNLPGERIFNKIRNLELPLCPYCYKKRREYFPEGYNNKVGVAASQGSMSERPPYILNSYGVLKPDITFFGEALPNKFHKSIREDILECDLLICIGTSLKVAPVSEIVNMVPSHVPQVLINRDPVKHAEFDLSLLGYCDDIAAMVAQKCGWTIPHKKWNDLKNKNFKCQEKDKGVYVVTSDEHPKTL

Q: Which MIC (Staphylococcus aureus [1]) does the source give for CC(=O)N[C@@H](CCCCN)C(=O)NCC(=O)N[C@@H](CC(C)C)C(=O)N[C@@H](CCCNC(=N)N)C(=O)N[C@@H](CCCCNC(=O)C(F)(F)F)C(=O)N[C@@H](Cc1ccccc1)C(=O)NCC(=O)N[C@@H](C)C(=O)N[C@@H](CCCCN)C(=O)N[C@@H](CCCNC(=N)N)C(=O)N[C@@H](Cc1cnc[nH]1)C(=O)N[C@@H](CCCNC(=N)N)C(=O)N[C@@H](CS)C(N)=O (Ac-KGLRK(Tfa)FGAKRHRC-NH2) here?
A: The MIC was 0.38 µM.

Q: And the Activity (Lipid bilayer [2])?
A: The Activity was “Active”.

Q: And the MIC (Pseudomonas aeruginosa [3])?
A: The MIC was 25 µM.

Q: What about the MBEC (Escherichia coli [4]) of the same compound?
A: Its MBEC is “inactive”.

Q: And the MIC (Pseudomonas aeruginosa [5])?
A: Its MIC is greater than 250 µM.

Q: And the Activity (Staphylococcus aureus [6])?
A: The Activity was “Active”.

Q: And the “fractional inhibitory concentration index (FICI)” value (Pseudomonas aeruginosa [7])?
A: The value was 0.36.

Q: What about the IC50 (HeLa) of the same compound?
A: The IC50 was 94.6 µM.

Q: What about the MIC (Escherichia coli [8]) of the same compound?
A: The MIC was 15.6 µM.

Q: And the MBIC (Staphylococcus aureus [9])?
A: The MBIC was 6.3 µM.

Q: What about the Activity (Lipid bilayer [10]) of the same compound?
A: The Activity was 70%.

Q: And the Activity (Cell membrane [11])?
A: Its Activity is “inactive”.

Q: What about the “fractional inhibitory concentration index (FICI)” value (Escherichia coli [12]) of the same compound?
A: Its value is 0.36.

Q: And the MIC (Pseudomonas aeruginosa [13])?
A: The MIC was 0.1 µM.

Q: And the MBIC (Escherichia coli [14])?
A: Its MBIC is “inactive”.

Q: What about the Activity (Escherichia coli [15]) of the same compound?
A: Its Activity is “Active”.

Q: What about the MIC (Staphylococcus aureus [16]) of the same compound?
A: Its MIC is 1.5 µM.

Q: And the MBEC (Staphylococcus aureus [17])?
A: Its MBEC is 12.5 µM.

Q: And the “fold change (FC)” value (Staphylococcus aureus [18])?
A: Its value is 6.

Q: What about the IC50 (BE(2)-C) of the same compound?
A: Its IC50 is 78 µM.

Q: And the MIC (Escherichia coli [19])?
A: Its MIC is 125 µM.

Q: And the MIC (Escherichia coli [20])?
A: Its MIC is 0.05 µM.

Q: And the inhibition [21]?
A: Its inhibition is “Active”.

Q: What about the Activity [22] of the same compound?
A: The Activity was “Toxic”.

Q: And the inhibition [23]?
A: The inhibition was “Active”.

Q: What about the Activity (Cell membrane [24]) of the same compound?
A: The Activity was “inactive”.

Q: What about the “fractional inhibitory concentration index (FICI)” value (Staphylococcus aureus [25]) of the same compound?
A: The value was 0.19.

Q: What about the hemolysis at 1 h, 1000 µM [26] of the same compound?
A: The hemolysis at 1 h, 1000 µM was less than 5%.

Q: And the MIC (Staphylococcus aureus [27])?
A: The MIC was 0.31 µM.

Q: What about the Activity (Lipid bilayer [28]) of the same compound?
A: The Activity was less than 20%.
